Assay results as given in US11576914B2, “Drug for treating or preventing disorder caused by TGF-β signaling, and application thereof” (THE DOSHISHA, priority 2017, dated 2023).

Tested on: Fuchs corneal endothelial dystrophy (FECD) model mice (Col8a2 Q455K/Q455K)
Test: In vivo evaluation in FECD model mice
Details: ophthalmic solution 0.1 mM, 1 mM, 10 mM, 2 μl twice daily, 3 months
Description: In the present example, mice having a type 8 collagen mutation (Col8a2^Q455K/Q455K) are used as Fuchs corneal endothelial dystrophy (FECD) model mice.
Grading of the severity of FECD was performed on the basis of corneal endothelium images prior to instillation testing, and FECD model mice aged 20-24 weeks with similar symptoms were used. The prepared AKP-001 ophthalmic solution (0.1 mM, 1 mM, and 10 mM) is instilled into the left and right eyes, 2 μl at a time, twice daily in the morning and evening for 45 mice. Otsuka Normal Saline (Otsuka Pharmaceutical Co., Ltd.) is used as a control. The instillation period is set to be 3 months, during which the person in charge of the experimentation carries out the experimentation in a blinded state regarding the AKP-001 ophthalmic solution and the control ophthalmic solution.
Prior to the start of the instillation testing, corneal endothelial images are observed with a contact corneal endothelial specular (KSSP slit-scanning wide-field contact specular microscope (Konan medical Inc., Hyogo, Japan)) to conduct grading. After starting the instillation testing, the corneal endothelial images of the mice are observed once every 4 weeks using the contact corneal endothelial specular to evaluate the effectiveness of the AKP-001 ophthalmic solution.

O=C(Cc1c(F)cccc1Cl)Nc1onc(-c2ccc(F)cc2)c1-c1ccncn1 [AKP-001, 5-[(2-chloro-6-fluorophenyl)acetylamino]-3-(4-fluorophenyl)-4-(4-pyrimidinyl)isoxazole]
decrease in corneal endothelial cell density compared to the control: suppressed | percentage of the area of guttae compared to the control: decreased
